One may read the Kd as the constant that tells how readily two partners part at equilibrium.

SMILES strings stand for the structures. Some results are limits rather than exact numbers.

This assay has as its target T1, S. aureus DnaG primase CTD (Staphylococcus aureus, UniProt P63964).
T1 sequence (P63964 463-605): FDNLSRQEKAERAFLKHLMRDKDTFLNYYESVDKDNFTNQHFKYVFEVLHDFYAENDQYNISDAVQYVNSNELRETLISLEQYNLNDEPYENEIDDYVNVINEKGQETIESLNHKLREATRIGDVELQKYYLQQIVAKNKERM
Kind of assay: 2D 1H-15N HSQC NMR titration. The class given is binding.
On to `Nc1nc2c(ncn2COCCO)c(=O)[nH]1` [acycloguanosine], for which the Kd is greater than 4 mM.
Then `Nc1ncnc2c1ncn2[C@@H]1O[C@H](CO)[C@@H](O)[C@H]1O` [adenosine], with greater than 4 mM; and `O=c1c(O)c(-c2cc(O)c(O)c(O)c2)oc2cc(O)cc(O)c12` [myricetin], with greater than 4 mM.
